Source: article PMC11836371, “Virtual fragment screening for DNA repair inhibitors in vast chemical space” (Nature Communications, 2025)
In brackets after ≈: the same amount, converted by molar mass. Several values for one entry are separate records, joined by “and”; a condition that tells them apart may be missing. Identical values can stand only once. Like-named read-outs stand apart in the source and are kept apart here.

Columns and labels:
[1] = Plasma protein binding in human plasma (RED); type: in vitro ADME; conditions: plasma (50% plasma, 50% isotonic buffer), pH 7.4, read-out: Protein plasma binding, fu (%)
Experimental: Pooled human plasma was provided by Uppsala Academic Hospital and was collected from two donors (non-smoking) (citric acid). In brief, 0.2 mL of the plasma (50% plasma, 50% isotonic buffer) test solution (typically 10 µM final compound concentration) was transferred to the membrane tube in the RED insert (ThermoFisher Scientific). 0.35 ml isotonic phosphate buffer pH 7.4 was added to the other side of the membrane. The 96-well base plate was then sealed with an adhesive plastic film (Scotch Pad) to prevent evaporation. The sample was incubated with rapid rotation (>>900 rpm) on a Kisker rotational incubator at 37 °C for 4 h to achieve equilibrium. Prior to LC-MS/MS analysis the plasma and buffer samples were treated with the addition of Methanol (1:3) containing Warfarin as an internal standard to precipitate proteins. The standard curve was created using the plasma standard. The plate was then sealed, and centrifuged and the supernatant was analyzed by liquid chromatography coupled to triple quadrupole mass spectrometry (LC-MS/MS).

[2] = Metabolic stability in human liver microsomes; type: in vitro ADME; conditions: pH 7.4, intrinsic clearance
Experimental: Human liver microsomes were purchased from BioIVT. Metabolic stability was determined in 0.5 mg/mL human liver microsomes at a compound concentration of 1 µM in 100 mM KPO4 buffer pH 7.4 in a total incubation volume of 500 µL. The reaction was initiated by the addition of 1 mM NADPH. At various incubation times, i.e., at 0, 5, 10, 20, 40, and 60 min, a sample was withdrawn from the incubation and the reaction was terminated by the addition of cold acetonitrile with warfarin as an internal standard. The amount of parent compound remaining was analyzed by liquid chromatography coupled to triple quadrupole mass spectrometry (LC-MS/MS).

human OGG1 enzyme [3] = target: T1, human OGG1 enzyme (Homo sapiens, UniProt O15527); experiment: Differential scanning fluorimetry (DSF) thermal shift assay; type: binding; set-up: ∆Tm (K): unit of the concentration uncertain; conditions: for ΔTm: concentration not given
T1 sequence (O15527 whole entry): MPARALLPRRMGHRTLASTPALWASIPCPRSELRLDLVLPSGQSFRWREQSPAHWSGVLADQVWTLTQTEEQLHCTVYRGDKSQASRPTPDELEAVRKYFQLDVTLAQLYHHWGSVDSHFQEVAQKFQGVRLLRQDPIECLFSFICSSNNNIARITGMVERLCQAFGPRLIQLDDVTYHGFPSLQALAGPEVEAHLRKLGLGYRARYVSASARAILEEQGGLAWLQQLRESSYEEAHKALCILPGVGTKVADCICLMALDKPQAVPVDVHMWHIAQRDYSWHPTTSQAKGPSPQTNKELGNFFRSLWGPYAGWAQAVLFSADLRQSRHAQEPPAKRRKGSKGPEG
Experimental: The temperature was increased from 20 °C to 85 °C with 10 readings/degree. Tm values were calculated using an excel template and fitting to the Boltzmann equation in Prism v.6.07 (GraphPad Software).

[4] = Cell viability assay (resazurin), BJhTERT non-transformed control; type: cell-based; conditions: human, BJhTERT immortalized fibroblast cells, BJhTERT, 100 μM, two independent experiments; read-out: percentage cell viability
Experimental: (§1) A2780, HCT116, and HEK293T cell lines were authenticated with STR profiling, frozen down, and these stocks were used in experiments. […] All media were supplemented with 10% FBS and 1% P/S. All cell culture media, additives, and reagents were purchased from Thermo Fisher Scientific. The cell plates were incubated 72 hours in a humidified incubator at 37 °C with 5% CO2, after which resazurin (Sigma-Aldrich), 10 µL/well, was added to a final concentration of 10 µg/mL. […] The cell viability was calculated compared to untreated control wells and the EC50 values were determined in XLfit (IDBS).

BJhTERT cells = experiment: as above; type: cell-based; conditions: BJhTERT, 100 μM, two independent experiments
Experimental: as §1

A2780 cells = experiment: Cancer cell viability assay (resazurin), A2780; type: cell-based; conditions: two independent experiments; for percentage cell viability: A2780, 100 μM, 100 µM; for viability at 100 µM: Homo sapiens, A2780, A2780, 100 μM, read-out: percentage cell viability
Experimental: Three different cancer cell lines A2780 (ovarian cancer, ECACC 93112519), A549 (lung cancer, ATCC 60150896) and HCT116 (colon cancer, ATCC CCL-247), and one immortalized fibroblast cell line (BJhTERT) as control, were seeded in black/clear 384-well plates (Corning #3764), 50 µL/well, containing 11 concentrations, nano-dispensed, dose-response curves of the test compounds. A2780, HCT116, and HEK293T cell lines were authenticated with STR profiling, frozen down, and these stocks were used in experiments. The A2780 cells were cultured in RPMI 1640, the A549 and BJhTERT cells in DMEM, and the HCT116 cells in McCoys 5 A medium. All media were supplemented with 10% FBS and 1% P/S. All cell culture media, additives, and reagents were purchased from Thermo Fisher Scientific. The cell plates were incubated 72 hours in a humidified incubator at 37 °C with 5% CO2, after which resazurin (Sigma-Aldrich), 10 µL/well, was added to a final concentration of 10 µg/mL. The plates were incubated for 6 hours with resazurin followed by fluorescence readings in a Sense plate reader (Hidex), resorufin protocol (ex 544 nm/em 595 nm). The cell viability was calculated compared to untreated control wells and the EC50 values were determined in XLfit (IDBS).

Thermodynamic solubility = type: physicochemical; conditions: for solubility thermodynamic: thermodynamic from solid
human OGG1 enzyme [5] = target: T1, human OGG1 enzyme; experiment: OGG1 glycosylase activity assay (enzyme inhibition, APE1-coupled fluorescence); type: biochemical; conditions: for increase of inhibitory potency compared to fragment 1: ratio of IC50 values
[6] = 99 (unit uncertain) as printed in sheet footnote
[7] = Figure 3B source data, three independent experiments, read-out: IC50 OGG1

fraction unbound at 4 h, 10 µM [1]	microsomal CLint at 1 µM [2] [µL/min/mg]	∆Tm (K) (human OGG1 enzyme [3]; 99 μM)	∆Tm (K) (human OGG1 enzyme [3]; [6])	ΔTm (human OGG1 enzyme [3]) [K]	OGG1 inhibition, dose-response (Figure2C) (human OGG1 enzyme [5]; Concentration (M) 1.93e-7)	OGG1 inhibition, dose-response (Figure2C) (human OGG1 enzyme [5]; Concentration (M) 3.87e-7)	OGG1 inhibition, dose-response (Figure2C) (human OGG1 enzyme [5]; Concentration (M) 7.73e-7)	OGG1 inhibition, dose-response (Figure2C) (human OGG1 enzyme [5]; Concentration (M) 1.55e-6)	OGG1 inhibition, dose-response (Figure2C) (human OGG1 enzyme [5]; Concentration (M) 3.09e-6)	OGG1 inhibition, dose-response (Figure2C) (human OGG1 enzyme [5]; Concentration (M) 6.19e-6)	OGG1 inhibition, dose-response (Figure2C) (human OGG1 enzyme [5]; Concentration (M) 1.24e-5)	OGG1 inhibition, dose-response (Figure2C) (human OGG1 enzyme [5]; Concentration (M) 2.48e-5)	OGG1 inhibition, dose-response (Figure2C) (human OGG1 enzyme [5]; Concentration (M) 4.95e-5)	OGG1 inhibition, dose-response (Figure2C) (human OGG1 enzyme [5]; Concentration (M) 9.9e-5)	IC50 (human OGG1 enzyme [5]; [7])	SMILES	viability at 72 h, 100 µM [4] [%]	percentage cell viability (BJhTERT cells) [%]	percentage cell viability (A2780 cells) [%]	viability at 100 µM (A2780 cells) [%]	further results
0.014	23.9	8.1 ± 0.1	8.1 ± 0.1	8.1	17.95 and 20.93 and 16.93 and 26.66	29.14 and 34.59 and 30.82 and 38.2	44.06 and 48.74 and 48.24 and 52.23	58.26 and 62.87 and 66.96 and 67.73	72.68 and 77.92 and 76.19 and 83.17	85.12 and 84.21 and 85.13 and 86.27	90.55 and 92.85 and 89.92 and 91.47	92.75 and 97.64 and 93.54 and 94.76	96.49 and 97.45 and 94.85 and 97.57	96.97 and 96.91 and 94.08 and 97.24	0.505 µM and 0.495 µM and 0.518 µM	Cc1nc(-c2ccc(CC(=O)Nc3noc4c3CCCC4)cc2)c(C)[nH]1 [compound 17]	28	38.43	6.29	5.42	∆Tm (K) (human OGG1 enzyme [3]; 99 μM, listed as Compound 17): 8.1 K; fold higher solubility than TH5487 (Thermodynamic solubility): > 600 fold and > 667 fold; solubility thermodynamic (Thermodynamic solubility): 667 µM (≈ 234 µg/mL); increase of inhibitory potency compared to fragment 1 (human OGG1 enzyme [5]): > 165 fold; IC50 (human OGG1 enzyme [5]; read-out: IC50): 0.6 µM
0.048	39.7	9.0 ± 0.2	9.0 ± 0.2	9.0	9.69 and 17.93 and 10.41 and 18.5	29.24 and 27.63 and 28.59 and 28.11	53.6 and 49.32 and 48.44 and 47.84	59.42 and 67.01 and 59.08 and 66.62	78.97 and 77.03 and 76.1 and 78.52	89 and 85.95 and 85.06 and 85.7	91.41 and 94.39 and 90.13 and 92.43	94.22 and 97.46 and 92.46 and 96.53	94.91 and 98.52 and 101.44 and 105.23	93.34 and 96.5 and 102.87 and 104.38	0.442 µM and 0.646 µM and 0.62 µM	Cc1nc(-c2cc(F)c(CC(=O)Nc3noc4c3CCCC4)c(F)c2)c(C)[nH]1 [compound 23]	67.4	68.66	42.92	33.8	solubility thermodynamic (Thermodynamic solubility; single replicate): 16 µM (≈ 6.18 µg/mL); increase of inhibitory potency compared to fragment 1 (human OGG1 enzyme [5]): > 165 fold; IC50 (human OGG1 enzyme [5]; read-out: IC50): 0.6 µM
